From patent US11912647B2, “Diversity-oriented synthesis of N,N,O-trisubstituted hydroxylamines from alcohols and amines by N—O bond formation” (University of Georgia Research Foundation, Inc., priority 2020, dated 2024)

Assays:
[1] = test system: human hepatocarcinoma cell line HepG2; conditions: cited from earlier work

melting point	Compound	IC50 [1]	activity toward HepG2 relative to kalkitoxin ([1]; hydroxalog versus parent natural product)
–	10-aza-9-oxakalkitoxin	2.4 ng/mL	complete retention of activity
92 to 93 °C	CC(C)(C)ON1CCN(c2cccc(Cl)c2Cl)CC1	–	–
–	kalkitoxin	3.2 ng/mL	–
77.6 to 78.8 °C	CC(C)(C)ON1CCN(c2ccc(C(F)(F)F)cc2)CC1	–	–
